Molecular target: T1, IDO1 (Homo sapiens, UniProt P14902)
T1 construct: HeLa cells were treated with a test compound in the presence of IFNγ, which induces IDO1 expression; host or cells: H1-HeLa cells, IDO1 induced with IFNγ
Test: Cell-based (HeLa) assay for measurement of IDO1 inhibition (kynurenine levels in supernatant after IFNγ induction)
Conditions: HeLa cells, geometric mean of a minimum of four determinations
Summary of the method: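 HeLa cells, 1,250 per well, treated with compound (0.5% DMSO final) plus IFNγ to induce IDO1, for 48 h. Supernatant kynurenine measured by TCA hydrolysis at 60 °C, then p-dimethylaminobenzaldehyde, absorbance 480 nm. EC50 from a four-parameter fit normalized to −/+IFNγ controls; geometric mean of at least four runs.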

[1] = IFNγ-induced IDO1, kynurenine in supernatant, 48 hour incubation
[2] = IFNγ-induced IDO1, kynurenine in supernatant after 48 hour incubation

T1 sequence (P14902 whole entry): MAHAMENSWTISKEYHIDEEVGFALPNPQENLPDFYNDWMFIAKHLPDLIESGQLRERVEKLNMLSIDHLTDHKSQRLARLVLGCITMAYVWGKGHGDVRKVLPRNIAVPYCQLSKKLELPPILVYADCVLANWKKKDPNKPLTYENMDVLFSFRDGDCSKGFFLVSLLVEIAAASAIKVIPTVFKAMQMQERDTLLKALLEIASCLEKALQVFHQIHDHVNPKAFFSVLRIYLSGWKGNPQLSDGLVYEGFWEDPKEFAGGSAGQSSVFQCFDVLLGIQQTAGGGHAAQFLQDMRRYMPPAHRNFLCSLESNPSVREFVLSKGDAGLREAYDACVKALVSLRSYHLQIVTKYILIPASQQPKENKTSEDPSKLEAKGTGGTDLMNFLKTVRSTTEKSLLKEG

EC50 [1] [nM]	EC50 [2] [nM]	Compound
> 10000	–	O=S(=O)(NCCNc1nc2c(F)c(F)cc(/C(=N/O)Nc3ccc(F)c(Cl)c3)c2[nH]1)C1CC1 [Example 336, N-(3-chloro-4-fluorophenyl)-2-((2-(cyclopropanesulfonamido)ethyl)amino)-4,5-difluoro-N′-hydroxy-1H-benzo[d]imidazole-7-carboximidamide]
139	–	CN(C)CCNc1nc2c(F)c(F)cc(/C(=N/O)Nc3cccc(Cl)c3)c2[nH]1 [Example 431, N-(3-chlorophenyl)-2-((2-(dimethylamino)ethyl)amino)-4,5-difluoro-N′-hydroxy-1H-benzo[d]imidazole-7-carboximidamide]
–	404	Nc1nc2c(F)ccc(/C(=N/O)Nc3cccc(Cl)c3)c2[nH]1 [Example 20, 2-Amino-N-(3-chlorophenyl)-4-fluoro-N′-hydroxy-1H-benzo[d]imidazole-7-carboximidamide]
–	1120	O/N=C(\Nc1ccc(F)c(Cl)c1)c1ccnc2nc(NCCN3CCC3)[nH]c12 [Example 233, 2-((2-(azetidin-1-yl)ethyl)amino)-N-(3-chloro-4-fluorophenyl)-N′-hydroxy-1H-imidazo[4,5-b]pyridine-7-carboximidamide]
–	9530	O/N=C(\Nc1ccc(F)c(Cl)c1)c1ccnc2nc(CN3CCOCC3)[nH]c12 [Example 112, N-(3-Chloro-4-fluorophenyl)-N′-hydroxy-2-(morpholinomethyl)-1H-imidazo[4,5-b]pyridine-7-carboximidamide]
205	–	CN1CCCCC(Nc2nc3c(F)c(F)cc(/C(=N/O)Nc4ccc(F)c(Cl)c4)c3[nH]2)C1 (stereo not shown) [Example 451, N-(3-chloro-4-fluorophenyl)-4,5-difluoro-N′-hydroxy-2-((1-methylazepan-3-yl)amino)-1H-benzo[d]imidazole-7-carboximidamide]
–	1540	OCc1nc2c(F)c(F)cc(/C(=N/O)Nc3cccc(Cl)c3)c2[nH]1 [Example 29, N-(3-Chlorophenyl)-4,5-difluoro-N′-hydroxy-2-(hydroxymethyl)-1H-benzo[d]imidazole-7-carboximidamide]
–	4800	O/N=C(\Nc1ccc(F)c(Cl)c1)c1c(F)ccc2nc[nH]c12 [Example 3, N-(3-Chloro-4-fluorophenyl)-6-fluoro-N′-hydroxy-1H-benzo[d]imidazole-7-carboximidamide]
376	–	CC(C)N1CCCC(Nc2nc3c(F)c(F)cc(C(=NO)Nc4ccc(F)c(Cl)c4)c3[nH]2)C1 (stereo not shown) [Example 455, N-(3-chloro-4-fluorophenyl)-4,5-difluoro-N′-hydroxy-2-((1-isopropylpiperidin-3-yl)amino)-1H-benzo[d]imidazole-7-carboximidamide]
–	3830	COCCN(C)CCNc1nc2nccc(/C(=N/O)Nc3ccc(F)c(Cl)c3)c2[nH]1 [Example 219, N-(3-chloro-4-fluorophenyl)-N′-hydroxy-2-((2-((2-methoxyethyl)(methyl)amino)ethyl)amino)-1H-imidazo[4,5-b]pyridine-7-carboximidamide]
–	4870	O/N=C(\Nc1ccc(OC(F)(F)F)cc1)c1ccnc2nc[nH]c12 [Example 66, N′-Hydroxy-N-(4-(trifluoromethoxy)phenyl)-1H-imidazo[4,5-b]pyridine-7-carboximidamide]
3140	–	CN(C)[C@H]1CCCC[C@@H]1Nc1nc2c(F)c(F)cc(/C(=N/O)Nc3ccc(F)c(Cl)c3)c2[nH]1 [Example 444, N-(3-chloro-4-fluorophenyl)-2-(((1S,2S)-2-(dimethylamino)cyclohexyl)amino)-4,5-difluoro-N′-hydroxy-1H-benzo[d]imidazole-7-carboximidamide]
> 10000	–	O/N=C(\Nc1ccc(F)c(Cl)c1)c1ccnc2nc(CC3CCCCN3)[nH]c12 (stereo not shown) [Example 325, N-(3-chloro-4-fluorophenyl)-N′-hydroxy-2-(piperidin-2-ylmethyl)-1H-imidazo[4,5-b]pyridine-7-carboximidamide]
–	1260	COCCN1CCC(Nc2nc3nccc(/C(=N/O)Nc4ccc(F)c(Cl)c4)c3[nH]2)C1 (stereo not shown) [Example 281, N-(3-chloro-4-fluorophenyl)-N′-hydroxy-2-((1-(2-methoxyethyl)pyrrolidin-3-yl)amino)-1H-imidazo[4,5-b]pyridine-7-carboximidamide]
–	813	O/N=C(\Nc1ccc(F)c(Cl)c1F)c1ccnc2nc[nH]c12 [Example 64, N-(3-Chloro-2,4-difluorophenyl)-N′-hydroxy-1H-imidazo[4,5-b]pyridine-7-carboximidamide]
–	1080	NCc1nc2c(/C(=N/O)Nc3ccc(F)c(Cl)c3)cc(F)c(F)c2[nH]1 [Example 47, 2-(Aminomethyl)-N-(3-chloro-4-fluorophenyl)-4,5-difluoro-N′-hydroxy-1H-benzo[d]imidazole-7-carboximidamide]
–	385	O/N=C(\Nc1cc(Cl)c(F)cc1F)c1ccnc2nc[nH]c12 [Example 62, N-(5-Chloro-2,4-difluorophenyl)-N′-hydroxy-1H-imidazo[4,5-b]pyridine-7-carboximidamide]
–	770	O/N=C(\Nc1ccccc1)c1ccnc2nc[nH]c12 [Example 100, N′-hydroxy-N-phenyl-1H-imidazo[4,5-b]pyridine-7-carboximidamide]
1070	–	Cc1nnc(CNc2nc3nccc(/C(=N/O)Nc4ccc(F)c(Cl)c4)c3[nH]2)o1 [Example 427, N-(3-chloro-4-fluorophenyl)-N′-hydroxy-2-(((5-methyl-1,3,4-oxadiazol-2-yl)methyl)amino)-1H-imidazo[4,5-b]pyridine-7-carboximidamide]
1190	–	CCN(CC)CCNc1nc2c(F)ccc(/C(=N/O)Nc3ccc(F)c(Cl)c3)c2[nH]1 [Example 375, N-(3-chloro-4-fluorophenyl)-2-((2-(diethylamino)ethyl)amino)-4-fluoro-N′-hydroxy-1H-benzo[d]imidazole-7-carboximidamide]
–	8230	O/N=C(\Nc1ccc(F)c(Cl)c1)c1ccnc2nc(CNCc3nccs3)[nH]c12 [Example 144, N-(3-Chloro-4-fluorophenyl)-N′-hydroxy-2-(((thiazol-2-ylmethyl)amino)methyl)-1H-imidazo[4,5-b]pyridine-7-carboximidamide]
757	–	CNCCNc1nc2c(F)c(F)cc(/C(=N/O)Nc3ccc(F)c(Cl)c3)c2[nH]1 [Example 395, N-(3-chloro-4-fluorophenyl)-4,5-difluoro-N′-hydroxy-2-((2-(methylamino)ethyl)amino)-1H-benzo[d]imidazole-7-carboximidamide]
–	1910	ON=C(Nc1ccc(F)c(Cl)c1)c1ccnc2nc(NCCN3CCC(F)(F)CC3)[nH]c12 [Example 214, N-(3-chloro-4-fluorophenyl)-2-((2-(4,4-difluoropiperidin-1-yl)ethyl)amino)-N′-hydroxy-1H-imidazo[4,5-b]pyridine-7-carboximidamide]
–	1920	COCCCNCc1nc2c(F)c(F)cc(/C(=N/O)Nc3cccc(Cl)c3)c2[nH]1 [Example 24, N-(3-Chlorophenyl)-4,5-difluoro-N′-hydroxy-2-(((3-methoxypropyl)amino)methyl)-1H-benzo[d]imidazole-7-carboximidamide]
–	6400	O/N=C(\Nc1ccc(F)c(Cl)c1)c1ccnc2nc(CNc3ncccn3)[nH]c12 [Example 182, N-(3-Chloro-4-fluorophenyl)-N′-hydroxy-2-((pyrimidin-2-ylamino)methyl)-1H-imidazo[4,5-b]pyridine-7-carboximidamide]

From patent US9951065B2 (Gilead Sciences, Inc., priority 2015, dated 2018)
